Test results from patent US20010007675A1, “Cosmetic and dermatological compositions containing aminoalchohol derivatives containing a urea functional group and uses thereof” (L'OREAL, priority 1996, published 2001).

Experiments:
[1] = Measurement of the imperceptible water loss (IWL) with an evaporimeter (Servomed); settings: compound at 1% in dichloromethane/methanol (2/1 v/v), applied on delipidated stratum corneum; measured 20 hours after application
Experimental: Measurement of the imperceptible water loss (IWL)
This measurement was carried out using an evaporimeter (Servomed) which quantitatively determines the evaporation of water, that is transportation of water by diffusion, from a stratum corneum sample which seals a cylindrical capsule containing water, the whole assembly being placed in a chamber with controlled relative temperature and controlled relative humidity.
Sensors made it possible to measure the partial vapour pressure of water at two points situated at different distances from the sample.
The partial vapour pressure of water gradient between the two points was thus determined and therefore the degree of evaporation in accordance with Fick's law.
This measurement is carried out for:
The compounds were prepared in the proportion of 1% in a dichloromethane/methanol (2/1 v/v) mixture and then applied on pieces of delipidated stratum comeum.
The imperceptible water loss (IWL) for each compound was measured 20 hours after application.

Row | melting point | SMILES | I.W.L. (imperceptible water loss) [1]
1 | – | CCCCCCCCCCCCOC(=O)N(C)C[C@H](O)[C@@H](O)[C@H](O)[C@H](O)CO [Reference B, N-dodecyloxycarbonyl-N-methyl-D-lucamine] | −9 +/− 2
2 | – | CCCCCCCCCCCC(=O)N(C)C[C@H](O)[C@@H](O)[C@H](O)[C@H](O)CO [Reference A, N-dodecanoyl-N-methyl-D-glucamine] | −11 +/− 3
3 | 111.4 °C | CCCCCCCCNC(=O)N(C)C[C@H](O)[C@@H](O)[C@H](O)[C@H](O)CO [Example 8, N-octylaminocarbonyl-N-methyl-D-glucamine] | –
4 | 116.8 °C | CCCCCCCCCCCCNC(=O)N(C)C[C@H](O)[C@@H](O)[C@H](O)[C@H](O)CO [Example 1, N-dodecylaminocarbonyl-N-methyl-D-glucamine] | −21 +/− 2
